Source: article PMC9479156 (Frontiers in Pharmacology, 2022)
Where two headings read alike, the source gives them in different places. Marks after values point to notes of the source that are not given here.

Key:
[1] = system: asexual blood stage P. falciparum K1 (multidrug resistant); settings: ref Coertzen et al., 2018, Wong et al., 2019, cited from earlier work
[2] = system: immature stage II-III P. falciparum NF54 gametocytes; design: method as in Coertzen et al., 2018, Wong et al., 2019; settings: ref Coertzen et al., 2018, Wong et al., 2019, cited from earlier work
[3] = system: late stage IV-V P. falciparum NF54 gametocytes; design: method as in Coertzen et al., 2018, Wong et al., 2019; settings: ref Coertzen et al., 2018, Wong et al., 2019, cited from earlier work
[4] = system: tumour cell lines; design: method as in earlier work; settings: range over cell lines; ref Gravett et al., 2011; Hooft van Huijsduijnen et al., 2013; Dwivedi et al., 2015; Wu et al., 2018; Wong et al., 2020; read-out: IC50 against tumour cell lines; cited from earlier work
[5] = system: asexual blood stage P. falciparum NF54 (drug sensitive); design: method as in Coertzen et al., 2018; Wong et al., 2019; settings: SYBR Green I, mean ± SEM, ref Coertzen et al., 2018, Wong et al., 2019; cited from earlier work
[6] = system: asexual blood stage P. falciparum W2 (multidrug resistant); assay: SYBR Green I proliferation assay, asexual blood stage Pf W2; type: cell-based, Plasmodium falciparum
Protocol: (§1) In vitro cultivation of asexual and gametocyte P. falciparum parasites: P. falciparum asexual blood stage parasites were cultivated in human erythrocytes in RPMI-1640 media supplemented with AlbuMax II under sterile conditions and in a hypoxic environment (90% N2, 5% CO2, and 5% O2) at 37°C as described previously ([Coertzen et al., 2018]; [Wong et al., 2019]). Gametocytes were produced from asexual blood stage parasites in a stage-specific manner through induction of cellular stress as described previously ([Reader et al., 2015]; [Coertzen et al., 2018]; [Wong et al., 2019]; [Reader et al., 2022]).
(§2) DHA, artesunate, artemether, chloroquine (CQ), and methylene blue (MB) were used as reference drugs. […] Dose-responses were determined using a 2-fold serial drug dilution on in vitro 95% ring-stage intraerythrocytic Pf parasites (1% parasitemia, 1% hematocrit) at 37°C under 90% N2, 5% CO2, and 5% O2 atmospheric conditions, detecting SYBR green I fluorescence as a marker for parasite proliferation following a 96 h drug treatment ([Smilkstein et al., 2004]; [Verlinden et al., 2011]). Activity against the Pf drug-sensitive NF54 strain and the multi drug-resistant K1 (resistant to CQ, quinine, pyrimethamine, and cycloguanil), and W2 (resistant to CQ, quinine, pyrimethamine, and cycloguanil) strains was evaluated. […]

[7] = system: asexual blood stage P. falciparum K1 (multidrug resistant); assay: SYBR Green I proliferation assay, asexual blood stage Pf K1; type: cell-based, Plasmodium falciparum
Protocol: as §1, §2

[8] = system: chloroquine sensitive Pf NF54 strain; settings: tritiated hypoxanthine assay; ref Figueiredo et al., 1998; Li et al., 2019; cited from earlier work
[9] = system: immature stage II-III P. falciparum NF54 gametocytes; assay: Luciferase reporter gametocytocidal assay, immature gametocytes; type: cell-based, Plasmodium falciparum; settings: this study
Protocol: as §1
Untreated and 5 μM MB-treated immature and late-stage gametocytes were included as positive and negative controls. MB and artemisone were included as internal reference standards. In all cases, an interference assay to eliminate false positives from possible compound interference with the luciferase readout was run in parallel. […]
Stage-specific activities of celastrol against immature (stage II-III) and late stage (stage IV-V) gametocytes were determined with the luc reporter line as described previously ([Coertzen et al., 2018]; [Wong et al., 2019]). Also included in Table 2 for direct comparison of activities with celastrol are gametocytocidal data for MB, artemisone and the artemisinin derivatives recorded previously ([Coertzen et al., 2018]; [Wong et al., 2019]).

[10] = system: drug-sensitive and resistant asexual blood stage Pf; assay: Asexual blood stage activity over all strains (abstract); type: cell-based; settings: Plasmodium falciparum, read-out: IC50 asexual blood stage Pf
Protocol: DHA, artesunate, artemether, chloroquine (CQ), and methylene blue (MB) were used as reference drugs. All assay conditions are as previously described ([Coertzen et al., 2018]; [Wong et al., 2019]). Compound working solutions were prepared from a 10 mM stock solution in 100% (v/v) dimethyl sulfoxide (DMSO; Sigma-Aldrich) in AlbuMAX II supplemented RPMI 1640 medium with a final DMSO concentration of 0.1% (v/v), shown to be nontoxic […] to intraerythrocytic asexual blood stage parasites ([Coertzen et al., 2018]). Dose-responses were determined using a 2-fold serial drug dilution on in vitro 95% ring-stage intraerythrocytic Pf parasites (1% parasitemia, 1% hematocrit) at 37°C under 90% N2, 5% CO2, and 5% O2 atmospheric conditions, detecting SYBR green I fluorescence as a marker for parasite proliferation following a 96 h drug treatment ([Smilkstein et al., 2004]; [Verlinden et al., 2011]). Activity against the Pf drug-sensitive NF54 strain and the multi drug-resistant K1 (resistant to CQ, quinine, pyrimethamine, and cycloguanil), and W2 (resistant to CQ, quinine, pyrimethamine, and cycloguanil) strains was evaluated. […] Data analysis was performed using GraphPad Prism (version 6) software, intra-assay variability was monitored with Z-factors, and acceptable inter-assay reproducibility was determined from the percent coefficient of variation (CV) ([Reader et al., 2015]). […]

[11] = system: multidrug resistant Pf K1 strain; settings: tritiated hypoxanthine assay; ref Figueiredo et al., 1998; Li et al., 2019; cited from earlier work
[12] = immature vs late stage gametocytes

Compound | IC50 ([1]; asexual blood stage, SYBR Green I, mean ± SEM) [nM] | RI (resistance index) = IC50 K1/IC50 NF54 [1] | IC50 ([2]; NF54 gametocytes, luciferase, 48 h, mean ± SEM, read-out: Immature stage II-III (luc 48 h) IC50) [nM] | Fold change preference ratio EG to LG [2, 12] | IC50 ([3]; NF54 gametocytes, luciferase, 72 h, mean ± SEM, read-out: Late stage IV-V (luc 72 h) IC50) [nM] | Fold change preference ratio LG to EG ([3]; late vs immature stage gametocytes) | IC50 [4] [nM] | IC50 [5] [nM] | IC50 ([6]; Plasmodium falciparum, W2, 96 h, read-out: IC50 W2) [nM] | RI = IC50 W2/IC50 NF54 ([6]; this study) | IC50 ([7]; Plasmodium falciparum, K1, 96 h, read-out: IC50 K1) [nM] | RI (resistance index) = IC50 K1/IC50 NF54 ([7]; this study) | IC50 [8] [nM] | IC50 ([9]; Plasmodium falciparum, NF54 gametocytes, luciferase, 48 h, mean ± SEM, read-out: Immature stage II-III (luc 48 h) IC50) [nM] | Fold change preference ratio EG to LG [9, 12] | IC50 [10] [nM] | IC50 [11] [nM]
C[C@H]1[C@H](N2CCS(=O)(=O)CC2)O[C@@H]2O[C@@]3(C)CC[C@H]4[C@H](C)CC[C@@H]1[C@@]24OO3 [Artemisone, artemisone] | 1.01 ± 0.19 | 0.85 ^f | 1.94 ± 0.11 | 21.9 | 42.4 ± 3.3 | 0.05 | 260 to 95700 | 1.2 | – | – | – | – | – | – | – | – | –
CC1=C(O)C(=O)C=C2C1=CC=C1[C@@]2(C)CC[C@@]2(C)[C@@H]3C[C@](C)(C(=O)O)CC[C@]3(C)CC[C@]12C [Celastrol, celastrol] | – | – | – | – | – | – | – | – | 500 ± 100 | 0.61 | 700 ± 100 | 0.85 | 564 | 1160 | 0.2 | 500 to 820 | 401
